Measurements published in patent US12036226B2, “Methods of treating subjects having diabetes with chronic kidney disease” (Poxel SA, priority 2018, dated 2024).

Key:
[1] = test system: subjects with T2DM and CKD stage 3B or 4; experiment: Phase 1b 28-day safety, tolerability and PK study in subjects with T2DM and CKD stage 3B or 4; type: in vivo
Excerpt: An Open Label, Parallel Arm Study to Assess the Safety, Tolerability, and Pharmacokinetics of Imeglimin in Subjects with Type 2 Diabetes Mellitus (T2DM) and Moderate to Severe Chronic Kidney Disease (CKD)
This Phase 1b study is to assess the safety, tolerability and pharmacokinetics (PK) of imeglimin in subjects with T2DM and CKD stage 3B or 4.
Subjects will be randomly allocated to receive one of three treatments or placebo.
Doses which are below the minimally acceptable doses are acceptable if stable for 12 weeks prior to Screening as per prescribing information. […] Primary Outcome Measures […]
Safety can be evaluated by assessment of clinical laboratory tests, physical examinations, vital signs measurements, and ECG readings at various time points during the study, and by the documentation of AEs.
The incidence of treatment-emergent adverse events (TEAE) will be summarized by treatment.
Plasma lactate will be summarized descriptively by absolute value at each visit by treatment group, together with the corresponding changes from baseline.
Pharmacokinetics (PK) data can be descriptively summarized by treatment group. PK parameters will be determined using noncompartmental methods. […] Steady-state can be evaluated using the trough concentration data.

[2] = test system: Japanese patients with type 2 diabetes (T2DM); experiment: 24-week Phase III placebo-controlled monotherapy study in Japanese patients with type 2 diabetes; type: in vivo, human; conditions: for HbA1c LSM Difference vs. Placebo, Week 24 / Change in HbA1c from baseline, Week 24 LS Mean (SE) / HbA1c LSM Difference vs. Placebo (SE), Week 24: 1000 mg BID
Protocol: A 24-Week Phase III, Randomized, Double-Blind, Placebo-Controlled, Monotherapy Study to Assess the Efficacy, Safety and Tolerability of Imeglimin Administered Orally in Japanese Patients with Type 2 Diabetes (T2DM)
A total of 213 subjects were randomized in a 1:1 ratio to receive either imeglimin (1000 mg BID) or placebo BID for 24 weeks, with 194 subjects completing the study without Investigational Medicinal Product (IMP) discontinuation. The primary objective of this study was to determine the change in HbA1c from baseline after 24 weeks of imeglimin treatment compared to placebo. Secondary endpoints of the trial included fasting plasma glucose along with other standard glycemic and non-glycemic parameters. Subjects were to have an eGFR of ≥50 mL/min/1.73 m^2 at Screening and ≥45 mL/min/1.73 m^2 at Pre-randomization.

subjects with T2DMs = experiment: Earlier studies in subjects with T2DM for up to 24 weeks (monotherapy, add on to metformin and sitagliptin); type: in vivo, human
[3] = Metabolism in standard in vitro assays; type: in vitro ADME
[4] = Pharmacokinetics of imeglimin (dose proportionality, excretion pathway); type: in vivo
[5] = Imeglimin Total, CKD3b (n = 21)

C[C@H]1N=C(N(C)C)N=C(N)N1 [imeglimin, (6R)—N^2, N^2,6-trimethyl-3,6-dihydro-1,3,5-triazine-2,4-diamine]
Subjects with any study drug related TEAE: Grade 4 - Life-threatening ([1]; 1500 mg QD, CKD3b (n = 17)): 0 n, % | Subjects with any study drug related TEAE: Grade 5 - Death ([1]; 1500 mg QD, CKD3b (n = 17)): 0 n, % | TEAE: Gastrointestinal disorders ([1]; 1500 mg QD, CKD3b (n = 17)): 3 (43%) n, % | Subjects with any TEAE ([1]; 1500 mg QD, CKD4 (n = 5)): 3 (60%) n, % | Subjects with any TEAE by maximum severity: Grade 1 - Mild ([1]; 1500 mg QD, CKD4 (n = 5)): 3 (60%) n, % | Subjects with any TEAE by maximum severity: Grade 2 - Moderate ([1]; 1500 mg QD, CKD4 (n = 5)): 0 n, % | Subjects with any TEAE by maximum severity: Grade 3 - Severe ([1]; 1500 mg QD, CKD4 (n = 5)): 0 n, % | Subjects with any TEAE by maximum severity: Grade 4 - Life-threatening ([1]; 1500 mg QD, CKD4 (n = 5)): 0 n, % | Subjects with any TEAE by maximum severity: Grade 5 - Death ([1]; 1500 mg QD, CKD4 (n = 5)): 0 n, % | Subjects with any study drug related TEAE ([1]; 1500 mg QD, CKD4 (n = 5)): 2 (40%) n, % | Subjects with any study drug related TEAE: Grade 1 - Mild ([1]; 1500 mg QD, CKD4 (n = 5)): 2 (40%) n, % | Subjects with any study drug related TEAE: Grade 2 - Moderate ([1]; 1500 mg QD, CKD4 (n = 5)): 0 n, % | Subjects with any study drug related TEAE: Grade 3 - Severe ([1]; 1500 mg QD, CKD4 (n = 5)): 0 n, % | Subjects with any study drug related TEAE: Grade 4 - Life-threatening ([1]; 1500 mg QD, CKD4 (n = 5)): 0 n, % | Subjects with any study drug related TEAE: Grade 5 - Death ([1]; 1500 mg QD, CKD4 (n = 5)): 0 n, % | TEAE: Gastrointestinal disorders ([1]; 1500 mg QD, CKD4 (n = 5)): 2 (40%) n, % | confirmed plasma lactate elevations ([1]; CKD stages 3B and 4, 28 days): no cases of confirmed plasma lactate elevations | lactic acidosis ([1]; CKD stages 3B and 4, 28 days): no lactic acidosis | serious adverse events ([1]; CKD stages 3B and 4, 28 days): no incidence of serious adverse events | AUC by CKD stage ([1]; Day 15, 1500 mg QD and 1000 mg BID treatment groups): increased in the T2DM with CKD stage 4 compared to CKD3B | Subjects with any TEAE [1, 5]: 10 (48%) n, % | Subjects with any TEAE by maximum severity: Grade 1 - Mild [1, 5]: 6 (29%) n, % | Subjects with any TEAE by maximum severity: Grade 2 - Moderate [1, 5]: 4 (19%) n, % | Subjects with any TEAE by maximum severity: Grade 3 - Severe [1, 5]: 0 n, % | Subjects with any TEAE by maximum severity: Grade 4 - Life-threatening [1, 5]: 0 n, % | Subjects with any TEAE by maximum severity: Grade 5 - Death [1, 5]: 0 n, % | Subjects with any study drug related TEAE [1, 5]: 3 (14%) n, % | Subjects with any study drug related TEAE: Grade 1 - Mild [1, 5]: 2 (10%) n, % | Subjects with any study drug related TEAE: Grade 2 - Moderate [1, 5]: 1 (5%) n, % | Subjects with any study drug related TEAE: Grade 3 - Severe [1, 5]: 0 n, % | Subjects with any study drug related TEAE: Grade 4 - Life-threatening [1, 5]: 0 n, % | Subjects with any study drug related TEAE: Grade 5 - Death [1, 5]: 0 n, % | TEAE: Gastrointestinal disorders [1, 5]: 5 (24%) n, % | Subjects with any TEAE ([1]; Imeglimin Total, CKD4 (n = 17)): 8 (47%) n, % | Subjects with any TEAE by maximum severity: Grade 1 - Mild ([1]; Imeglimin Total, CKD4 (n = 17)): 5 (29%) n, % | Subjects with any TEAE by maximum severity: Grade 2 - Moderate ([1]; Imeglimin Total, CKD4 (n = 17)): 3 (18%) n, % | Subjects with any TEAE by maximum severity: Grade 3 - Severe ([1]; Imeglimin Total, CKD4 (n = 17)): 0 n, % | Subjects with any TEAE by maximum severity: Grade 4 - Life-threatening ([1]; Imeglimin Total, CKD4 (n = 17)): 0 n, % | Subjects with any TEAE by maximum severity: Grade 5 - Death ([1]; Imeglimin Total, CKD4 (n = 17)): 0 n, % | Subjects with any study drug related TEAE ([1]; Imeglimin Total, CKD4 (n = 17)): 3 (18%) n, % | Subjects with any study drug related TEAE: Grade 1 - Mild ([1]; Imeglimin Total, CKD4 (n = 17)): 3 (18%) n, % | Subjects with any study drug related TEAE: Grade 2 - Moderate ([1]; Imeglimin Total, CKD4 (n = 17)): 0 n, % | Subjects with any study drug related TEAE: Grade 3 - Severe ([1]; Imeglimin Total, CKD4 (n = 17)): 0 n, % | Subjects with any study drug related TEAE: Grade 4 - Life-threatening ([1]; Imeglimin Total, CKD4 (n = 17)): 0 n, % | Subjects with any study drug related TEAE: Grade 5 - Death ([1]; Imeglimin Total, CKD4 (n = 17)): 0 n, % | TEAE: Gastrointestinal disorders ([1]; Imeglimin Total, CKD4 (n = 17)): 4 (24%) n, % | maximum observed concentrations (Cmax) ([1]; after the morning dose on Day 15): increased in a dose-dependent manner | tolerability ([1]; as CKD severity increased (up to stage 4)): well tolerated | HbA1c LSM Difference vs. Placebo, Week 24 ([2]; CKD Stage 2 (eGFR = 60-90 mL/min/1.73 m^2)): −0.96% | Change in HbA1c from baseline, Week 24 LS Mean (SE) ([2]; CKD Stage 2 (eGFR = 60-90 mL/min/1.73 m^2), N 66): −0.82 (0.08) % | HbA1c LSM Difference vs. Placebo, Week 24 ([2]; CKD Stage 2 (eGFR = 60-90 mL/min/1.73 m^2), listed as Imeglimin): −0.96 (0.11) % | HbA1c LSM Difference vs. Placebo, Week 24 ([2]; CKD Stage 3a (eGFR < 60 mL/min/1.73 m^2)): −0.70% | Change in HbA1c from baseline, Week 24 LS Mean (SE) ([2]; CKD Stage 3a (eGFR < 60 mL/min/1.73 m^2), N 21): −0.66 (0.13) % | HbA1c LSM Difference vs. Placebo, Week 24 ([2]; CKD Stage 3a (eGFR < 60 mL/min/1.73 m^2), listed as Imeglimin): −0.70 (0.19) % | HbA1c LSM Difference vs. Placebo (SE), Week 24 ([2]; Normal eGFR (eGFR > 90 mL/min/1.73 m^2)): −0.59% | Change in HbA1c from baseline, Week 24 LS Mean (SE) ([2]; Normal eGFR (eGFR > 90 mL/min/1.73 m^2), N 11): −0.33 (0.20) % | HbA1c LSM Difference vs. Placebo (SE), Week 24 ([2]; Normal eGFR (eGFR > 90 mL/min/1.73 m^2), listed as Imeglimin): −0.59 (0.32) % | A1C lowering compared to placebo ([2]; pre-specified analysis, stage 2 and 3a CKD (eGFR <90 mL/min/1.73 m^2, n=178)): improvement in A1C lowering as compared to placebo | tolerability / safety profile (subjects with T2DMs): well-tolerated with a safety profile comparable to that of placebo | metabolism [3]: no appreciable metabolism | dose proportionality of exposures ([4]; 250 to 2000 mg range): less than dose proportional exposures | main excretion pathway ([4]; in vivo): renal elimination as the main excretion pathway
